Measurements taken from patent US10093713B2, “GIP-GLP-1 dual agonist compounds and methods” (priority 2013, dated 2018).
Like-named read-outs stand apart in the source and are kept apart here. *1 amine or outer side, *2 acyl side, *3 side chain or, on linkers, in order; H or OH if unused. Where a SMILES comes first, the peptide text is derived from it. Side-chain parts run from the residue outwards. [ ]: non-standard residue; d: D form. The star is where a group is joined. C20 diacid = O=C(O)CCCCCCCCCCCCCCCCCCC(=O)*; γGlu = O=C(O)[C@H](CCC(=O)[*:2])N[*:1]; AEEA = NCCOCCOCC(=O)O; Aib = CC(C)(N)C(=O)O

Legend:
[1] = target: T1, human GIP R (Homo sapiens, UniProt P48546); test: Human GIP receptor (GIP R) activity assay, cAMP induction (AlphaScreen) in HEK293 cells; assay type: cell-based; details: read-out: hGIP-R cAMP EC50 average value
T1 construct: expressed in transfected cells
T1 sequence (P48546 22-466): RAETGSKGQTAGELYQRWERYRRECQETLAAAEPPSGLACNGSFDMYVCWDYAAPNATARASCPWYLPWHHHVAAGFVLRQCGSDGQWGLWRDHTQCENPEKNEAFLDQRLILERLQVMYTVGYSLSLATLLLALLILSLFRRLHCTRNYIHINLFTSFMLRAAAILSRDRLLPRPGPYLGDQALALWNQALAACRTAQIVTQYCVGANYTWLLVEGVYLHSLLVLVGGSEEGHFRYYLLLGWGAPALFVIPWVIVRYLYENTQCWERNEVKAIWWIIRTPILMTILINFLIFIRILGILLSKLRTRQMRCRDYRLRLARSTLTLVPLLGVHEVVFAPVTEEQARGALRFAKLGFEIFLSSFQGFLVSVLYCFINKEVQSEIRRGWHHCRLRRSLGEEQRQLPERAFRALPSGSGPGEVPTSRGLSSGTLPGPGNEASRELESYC
How it was run: (§1)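 Stable HEK293 clones expressing human GIP R or GLP-1 R, seeded 1 day before; cells washed in Tyrode's buffer (10 mM HEPES, pH 7.4), stimulated, then lysed. cAMP measured by AlphaScreen bead competition (1 h, room temperature, dark). EC50 = concentration giving half-maximal cAMP elevation, from curves of absolute cAMP (nM) vs log concentration.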

[2] = target: T2, human GLP-1 R (Homo sapiens, UniProt P43220); test: Human GLP-1 receptor (GLP-1 R) activity assay, cAMP induction (AlphaScreen) in HEK293 cells; assay type: cell-based
T2 construct: expressed in transfected cells
How it was run: as §1

[3] = Table 3, most comprehensive data
[4] = Table 3, most comprehensive data, read-out: hGLP-1-R cAMP EC50 average value

T2 sequence (P43220 24-463): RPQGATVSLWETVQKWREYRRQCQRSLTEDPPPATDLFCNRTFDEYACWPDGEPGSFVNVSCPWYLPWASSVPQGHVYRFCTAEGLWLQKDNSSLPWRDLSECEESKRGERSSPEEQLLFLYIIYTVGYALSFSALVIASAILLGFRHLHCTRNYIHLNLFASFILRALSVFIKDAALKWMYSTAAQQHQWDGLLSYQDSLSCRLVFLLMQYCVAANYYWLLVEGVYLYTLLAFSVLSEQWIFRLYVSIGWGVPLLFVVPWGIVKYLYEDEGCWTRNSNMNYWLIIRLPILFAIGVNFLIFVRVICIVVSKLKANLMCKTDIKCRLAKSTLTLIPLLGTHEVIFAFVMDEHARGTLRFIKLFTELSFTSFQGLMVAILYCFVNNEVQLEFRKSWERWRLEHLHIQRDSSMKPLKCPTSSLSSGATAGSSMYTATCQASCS

Row | SMILES | EC50 [1, 3] [pM] | EC50 [2, 4] [pM] | EC50 ([1]; Table 2a, secondary assay study) [pM] | EC50 ([2]; Table 2a, secondary assay study, read-out: hGLP1-R cAMP EC50 average value) [pM]
1 | CC[C@H](C)[C@H](NC(=O)[C@H](CO)NC(=O)[C@H](Cc1ccc(O)cc1)NC(=O)[C@H](CC(=O)O)NC(=O)[C@H](CO)NC(=O)[C@@H](NC(=O)[C@H](Cc1ccccc1)NC(=O)[C@@H](NC(=O)CNC(=O)[C@H](CCC(=O)O)NC(=O)[C@@H](C)NC(=O)[C@@H](N)Cc1ccc(O)cc1)[C@@H](C)O)[C@@H](C)O)C(=O)N[C@@H](C)C(=O)N[C@@H](CC(C)C)C(=O)N[C@@H](CC(=O)O)C(=O)N[C@@H](CCCCN)C(=O)N[C@@H](CCCCNC(=O)COCCOCCNC(=O)COCCOCCNC(=O)CC[C@H](NC(=O)CCCCCCCCCCCCCCCCCCC(=O)O)C(=O)O)C(=O)N[C@@H](C)C(=O)N[C@@H](CCC(N)=O)C(=O)N[C@@H](CCCNC(=N)N)C(=O)N[C@@H](C)C(=O)N[C@@H](Cc1ccccc1)C(=O)N[C@H](C(=O)N[C@@H](CCC(=O)O)C(=O)N[C@@H](Cc1c[nH]c2ccccc12)C(=O)N[C@@H](CC(C)C)C(=O)N[C@@H](CC(C)C)C(=O)N[C@@H](C)C(=O)N[C@@H](CCC(N)=O)C(=O)N[C@@H](CCCCN)C(=O)N1CCC[C@H]1C(=O)N[C@@H](CO)C(=O)N[C@@H](CO)C(=O)NCC(=O)N[C@@H](C)C(=O)N1CCC[C@H]1C(=O)N1CCC[C@H]1C(=O)N1CCC[C@H]1C(=O)N[C@@H](CO)C(N)=O)C(C)C [Compound 39] (H-Y[dA]EGTFTSDYSIALDKK([AEEA-AEEA-γGlu-C20 diacid])AQRAFVEWLLAQKPSSGAPPPS-NH2) | 11 | 6 | – | –
2 | CC[C@H](C)[C@H](NC(=O)[C@H](CO)NC(=O)[C@H](Cc1ccc(O)cc1)NC(=O)[C@H](CC(=O)O)NC(=O)[C@H](CO)NC(=O)[C@@H](NC(=O)[C@H](Cc1ccccc1)NC(=O)[C@@H](NC(=O)CNC(=O)[C@H](CCC(=O)O)NC(=O)C(C)(C)NC(=O)[C@@H](N)Cc1ccc(O)cc1)[C@@H](C)O)[C@@H](C)O)C(=O)N[C@@H](C)C(=O)N[C@@H](CC(C)C)C(=O)N[C@@H](CC(=O)O)C(=O)N[C@@H](CCCCN)C(=O)N[C@@H](CCCCNC(=O)COCCOCCNC(=O)COCCOCCNC(=O)CC[C@H](NC(=O)CCCCCCCCCCCCCCCCCCC(=O)O)C(=O)O)C(=O)N[C@@H](C)C(=O)N[C@@H](CCC(N)=O)C(=O)N[C@@H](CCCNC(=N)N)C(=O)N[C@@H](C)C(=O)N[C@@H](Cc1ccccc1)C(=O)N[C@H](C(=O)N[C@@H](CC(N)=O)C(=O)N[C@@H](Cc1c[nH]c2ccccc12)C(=O)N[C@@H](CC(C)C)C(=O)N[C@H](C(=O)N[C@@H](C)C(=O)NC(C)(C)C(=O)N[C@@H](CCCCN)C(=O)N1CCC[C@H]1C(=O)N[C@@H](CO)C(=O)N[C@@H](CO)C(=O)NCC(=O)N[C@@H](C)C(=O)N1CCC[C@H]1C(=O)N1CCC[C@H]1C(=O)N1CCC[C@H]1C(=O)N[C@@H](CO)C(N)=O)C(C)C)C(C)C [Compound 16] | – | – | 8 | 9
3 | CC[C@H](C)[C@H](NC(=O)[C@H](CO)NC(=O)[C@H](Cc1ccc(O)cc1)NC(=O)[C@H](CC(=O)O)NC(=O)[C@H](CO)NC(=O)[C@@H](NC(=O)[C@H](Cc1ccccc1)NC(=O)[C@@H](NC(=O)CNC(=O)[C@H](CCC(=O)O)NC(=O)C(C)(C)NC(=O)[C@@H](N)Cc1ccc(O)cc1)[C@@H](C)O)[C@@H](C)O)C(=O)N[C@@H](C)C(=O)N[C@@H](CC(C)C)C(=O)N[C@@H](CC(=O)O)C(=O)N[C@@H](CCCCN)C(=O)N[C@@H](CCCCNC(=O)COCCOCCNC(=O)COCCOCCNC(=O)CC[C@H](NC(=O)CCCCCCCCCCCCCCCCCCC(=O)O)C(=O)O)C(=O)N[C@@H](C)C(=O)N[C@@H](CCC(N)=O)C(=O)N[C@@H](CCCNC(=N)N)C(=O)N[C@@H](C)C(=O)N[C@@H](Cc1ccccc1)C(=O)N[C@H](C(=O)N[C@@H](CCC(=O)O)C(=O)N[C@@H](Cc1c[nH]c2ccccc12)C(=O)N[C@@H](CC(C)C)C(=O)N[C@@H](CC(C)C)C(=O)N[C@@H](C)C(=O)N[C@@H](CCC(N)=O)C(=O)N[C@@H](CCCCN)C(=O)N1CCC[C@H]1C(=O)N[C@@H](CO)C(=O)N[C@@H](CO)C(=O)NCC(=O)N[C@@H](C)C(=O)N1CCC[C@H]1C(=O)N1CCC[C@H]1C(=O)N1CCC[C@H]1C(=O)N[C@@H](CO)C(N)=O)C(C)C [Compound 38] (H-Y[Aib]EGTFTSDYSIALDKK([AEEA-AEEA-γGlu-C20 diacid])AQRAFVEWLLAQKPSSGAPPPS-NH2) | 5 | 12 | – | –
